What was measured:
[1] = test system: SK-MEL-2; assay: Cytotoxicity against human SK-MEL-2 after 48 hrs by SRB assay; type: functional; details: SK-MEL-2, 48 h
[2] = test system: OVCAR-5; assay: Cytotoxicity against human OVCAR5 after 48 hrs by SRB assay; type: functional; details: OVCAR-5, 48 h
[3] = test system: UACC-62; assay: Cytotoxicity against human UACC62 after 48 hrs by SRB assay; type: functional; details: UACC-62, 48 h
[4] = test system: HCC 2998; assay: Cytotoxicity against human HCC2998 after 48 hrs by SRB assay; type: functional; details: HCC 2998, 48 h
[5] = test system: SF-295; assay: Cytotoxicity against human SF295 after 48 hrs by SRB assay; type: functional; details: SF-295, 48 h
[6] = test system: NCI/ADR-RES; assay: Cytotoxicity against human NCI/ADR-RES after 48 hrs by SRB assay; type: functional
[7] = test system: SR; assay: Cytotoxicity against human SR after 48 hrs by SRB assay; type: functional
[8] = test system: Malme-3M; assay: Cytotoxicity against human MALME-3M after 48 hrs by SRB assay; type: functional
[9] = test system: MOLT-4; assay: Cytotoxicity against human MOLT4 after 48 hrs by SRB assay; type: functional; details: MOLT-4, 48 h
[10] = test system: HT-29; assay: Cytotoxicity against human HT-29 after 48 hrs by SRB assay; type: functional; details: HT-29, 48 h
[11] = test system: SK-MEL-28; assay: Cytotoxicity against human SK-MEL-28 after 48 hrs by SRB assay; type: functional; details: SK-MEL-28, 48 h
[12] = test system: HCT-15; assay: Cytotoxicity against human HCT15 after 48 hrs by SRB assay; type: functional; details: HCT-15, 48 h
[13] = test system: U-251; assay: Cytotoxicity against human U251 after 48 hrs by SRB assay; type: functional; details: U-251, 48 h
[14] = test system: NCI-H226; assay: Cytotoxicity against human NCI-H226 after 48 hrs by SRB assay; type: functional; details: NCI-H226, 48 h
[15] = test system: SF-539; assay: Cytotoxicity against human SF539 after 48 hrs by SRB assay; type: functional; details: SF-539, 48 h
[16] = test system: A549; assay: Cytotoxicity against human A549 after 48 hrs by SRB assay; type: functional; details: A549, 48 h
[17] = test system: KM12; assay: Cytotoxicity against human KM12 after 48 hrs by SRB assay; type: functional; details: KM12, 48 h
[18] = test system: HOP-92; assay: Cytotoxicity against human HOP92 after 48 hrs by SRB assay; type: functional; details: HOP-92, 48 h
[19] = test system: SK-MEL-5; assay: Cytotoxicity against human SK-MEL-5 after 48 hrs by SRB assay; type: functional; details: SK-MEL-5, 48 h
[20] = test system: BT-549; assay: Cytotoxicity against human BT549 after 48 hrs by SRB assay; type: functional; details: BT-549, 48 h
[21] = test system: MCF7; assay: Cytotoxicity against human MCF7 after 48 hrs by SRB assay; type: functional; details: MCF7, 48 h
[22] = test system: OVCAR-8; assay: Cytotoxicity against human OVCAR8 after 48 hrs by SRB assay; type: functional; details: OVCAR-8, 48 h
[23] = test system: NCI-H522; assay: Cytotoxicity against human NCI-H522 after 48 hrs by SRB assay; type: functional; details: NCI-H522, 48 h
[24] = test system: SNB-19; assay: Cytotoxicity against human SNB19 after 48 hrs by SRB assay; type: functional; details: SNB-19, 48 h
[25] = test system: NCI-H460; assay: Cytotoxicity against human NCI-H460 after 48 hrs by SRB assay; type: functional; details: NCI-H460, 48 h
[26] = test system: RXF 393; assay: Cytotoxicity against human RXF393 after 48 hrs by SRB assay; type: functional; details: RXF 393, 48 h
[27] = test system: IGROV-1; assay: Cytotoxicity against human IGROV1 after 48 hrs by SRB assay; type: functional; details: IGROV-1, 48 h
[28] = test system: M14; assay: Cytotoxicity against human M14 after 48 hrs by SRB assay; type: functional; details: M14, 48 h
[29] = test system: UACC-257; assay: Cytotoxicity against human UACC257 after 48 hrs by SRB assay; type: functional; details: UACC-257, 48 h
[30] = test system: HCT-116; assay: Cytotoxicity against human HCT116 after 48 hrs by SRB assay; type: functional; details: HCT-116, 48 h
[31] = test system: SW-620; assay: Cytotoxicity against human SW620 after 48 hrs by SRB assay; type: functional; details: SW-620, 48 h
[32] = test system: OVCAR-3; assay: Cytotoxicity against human OVCAR3 after 48 hrs by SRB assay; type: functional; details: OVCAR-3, 48 h
[33] = Cytotoxicity against human HL-60(TB) after 48 hrs by SRB assay; type: functional; details: HL-60, 48 h
[34] = test system: SN12C; assay: Cytotoxicity against human SN12C after 48 hrs by SRB assay; type: functional
[35] = test system: SF-268; assay: Cytotoxicity against human SF268 after 48 hrs by SRB assay; type: functional; details: SF-268, 48 h
[36] = test system: 786-0; assay: Cytotoxicity against human 786-0 after 48 hrs by SRB assay; type: functional; details: 786-0, 48 h
[37] = test system: PC-3; assay: Cytotoxicity against human PC3 after 48 hrs by SRB assay; type: functional; details: PC-3, 48 h
[38] = test system: MDA-MB-468; assay: Cytotoxicity against human MDA-MB-468 after 48 hrs by SRB assay; type: functional; details: MDA-MB-468, 48 h
[39] = test system: COLO 205; assay: Cytotoxicity against human COLO205 after 48 hrs by SRB assay; type: functional; details: COLO 205, 48 h
[40] = test system: A498; assay: Cytotoxicity against human A498 after 48 hrs by SRB assay; type: functional; details: A498, 48 h
[41] = Cytotoxicity against human EKVX after 48 hrs by SRB assay; type: functional
[42] = test system: ACHN; assay: Cytotoxicity against human ACHN after 48 hrs by SRB assay; type: functional
[43] = test system: SK-OV-3; assay: Cytotoxicity against human SKOV3 after 48 hrs by SRB assay; type: functional; details: SK-OV-3, 48 h
[44] = test system: HOP-62; assay: Cytotoxicity against human HOP62 after 48 hrs by SRB assay; type: functional; details: HOP-62, 48 h
[45] = test system: TK-10; assay: Cytotoxicity against human TK10 after 48 hrs by SRB assay; type: functional; details: TK-10, 48 h
[46] = test system: UO-31; assay: Cytotoxicity against human UO31 after 48 hrs by SRB assay; type: functional; details: UO-31, 48 h
[47] = test system: NCI-H23; assay: Cytotoxicity against human NCI-H23 after 48 hrs by SRB assay; type: functional; details: NCI-H23, 48 h
[48] = test system: MDA-MB-435; assay: Cytotoxicity against human MDA-MB-435 after 48 hrs by SRB assay; type: functional; details: MDA-MB-435, 48 h
[49] = test system: SNB-75; assay: Cytotoxicity against human SNB75 after 48 hrs by SRB assay; type: functional; details: SNB-75, 48 h
[50] = test system: NCI-H322M; assay: Cytotoxicity against human NCI-H322M after 48 hrs by SRB assay; type: functional
[51] = test system: LOX IMVI; assay: Cytotoxicity against human LOXIMVI after 48 hrs by SRB assay; type: functional
[52] = test system: Hs-578T; assay: Cytotoxicity against human Hs578T after 48 hrs by SRB assay; type: functional
[53] = test system: MDA-MB-231; assay: Cytotoxicity against human MDA-MB-231 after 48 hrs by SRB assay; type: functional; details: MDA-MB-231, 48 h
[54] = test system: CAKI-1; assay: Cytotoxicity against human CAKI-1 after 48 hrs by SRB assay; type: functional; details: CAKI-1, 48 h
[55] = test system: DU-145; assay: Cytotoxicity against human DU145 after 48 hrs by SRB assay; type: functional; details: DU-145, 48 h
[56] = test system: OVCAR-4; assay: Cytotoxicity against human OVCAR4 after 48 hrs by SRB assay; type: functional; details: OVCAR-4, 48 h
[57] = test system: T47D; assay: Cytotoxicity against human T47D after 48 hrs by SRB assay; type: functional
[58] = biological target: Mineralocorticoid receptor (Homo sapiens, UniProt P08235); assay: Antagonist activity at mineralocorticoid receptor (unknown origin)
[59] = read-out: LC50 (the source's name)

Mineralocorticoid receptor, sequence (P08235 whole entry): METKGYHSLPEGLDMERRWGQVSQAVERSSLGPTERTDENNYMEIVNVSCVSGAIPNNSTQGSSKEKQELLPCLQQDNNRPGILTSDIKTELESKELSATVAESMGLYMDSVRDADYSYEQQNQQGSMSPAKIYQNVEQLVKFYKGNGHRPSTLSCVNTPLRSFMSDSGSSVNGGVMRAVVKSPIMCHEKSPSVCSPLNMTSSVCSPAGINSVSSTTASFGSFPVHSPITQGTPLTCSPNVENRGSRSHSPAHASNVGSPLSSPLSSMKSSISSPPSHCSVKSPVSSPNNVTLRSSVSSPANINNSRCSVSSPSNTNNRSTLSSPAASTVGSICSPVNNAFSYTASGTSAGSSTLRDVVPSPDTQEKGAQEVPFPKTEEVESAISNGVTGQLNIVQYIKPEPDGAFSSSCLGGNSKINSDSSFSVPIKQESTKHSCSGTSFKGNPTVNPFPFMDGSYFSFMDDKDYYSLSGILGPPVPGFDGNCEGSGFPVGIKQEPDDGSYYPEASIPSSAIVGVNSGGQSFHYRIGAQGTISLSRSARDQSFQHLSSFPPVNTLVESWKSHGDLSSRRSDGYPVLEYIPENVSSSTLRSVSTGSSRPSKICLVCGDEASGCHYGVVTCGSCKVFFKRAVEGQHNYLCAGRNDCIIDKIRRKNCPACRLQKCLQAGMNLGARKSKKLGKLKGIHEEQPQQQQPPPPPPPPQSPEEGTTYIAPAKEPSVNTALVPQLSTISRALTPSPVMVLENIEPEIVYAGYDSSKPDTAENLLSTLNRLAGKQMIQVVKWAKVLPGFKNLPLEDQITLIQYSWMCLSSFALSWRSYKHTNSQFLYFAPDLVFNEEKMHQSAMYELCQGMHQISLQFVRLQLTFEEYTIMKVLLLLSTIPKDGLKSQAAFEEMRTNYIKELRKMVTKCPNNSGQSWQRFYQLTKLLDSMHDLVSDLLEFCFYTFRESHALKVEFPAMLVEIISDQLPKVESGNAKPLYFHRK

Q: What does the source list for `COc1cc(/C=C2\CN(C)CC3=C2Nc2nc(SC)[nH]c(=O)c2C3c2cc(OC)c(OC)c(OC)c2)cc(OC)c1OC` (stereo not given)?
A: GI50 [1]: 9.92 µM; CC50 [1, 59]: > 100 µM; GI50 [2]: 4.83 µM; CC50 [2, 59]: 48.7 µM; GI50 [3]: 2.06 µM; CC50 [3, 59]: 18.5 µM; GI50 [4]: 1.91 µM; CC50 [4, 59]: 6.9 µM; GI50 [5]: 2.24 µM; CC50 [5, 59]: 26.9 µM; GI50 [6]: 3.6 µM; CC50 [6, 59]: > 100 µM; GI50 [7]: 1.48 µM; CC50 [7, 59]: > 100 µM; GI50 [8]: 2.82 µM; CC50 [8, 59]: 55.5 µM; GI50 [9]: 2.92 µM; CC50 [9, 59]: > 100 µM; GI50 [10]: 2.35 µM; CC50 [10, 59]: 16.3 µM; GI50 [11]: 2.1 µM; CC50 [11, 59]: 8.79 µM; GI50 [12]: 2.07 µM; CC50 [12, 59]: 13.6 µM; GI50 [13]: 1.76 µM; CC50 [13, 59]: 9.75 µM; GI50 [14]: 6.17 µM; CC50 [14, 59]: 60.6 µM; GI50 [15]: 3.64 µM; CC50 [15, 59]: > 100 µM; GI50 [16]: 3.26 µM; CC50 [16, 59]: 62.5 µM; GI50 [17]: 1.7 µM; CC50 [17, 59]: 6.08 µM; GI50 [18]: 3.4 µM; CC50 [18, 59]: 53.4 µM; GI50 [19]: 2.83 µM; CC50 [19, 59]: 34.7 µM; GI50 [20]: 2.98 µM; CC50 [20, 59]: 29.5 µM; GI50 [21]: 4.98 µM; CC50 [21, 59]: 50 µM; GI50 [22]: 2.89 µM; CC50 [22, 59]: > 100 µM; GI50 [23]: 2.04 µM; CC50 [23, 59]: 15.5 µM; GI50 [24]: 8.65 µM; CC50 [24, 59]: 50 µM; GI50 [25]: 2.3 µM; CC50 [25, 59]: > 100 µM; GI50 [26]: 1.81 µM; CC50 [26, 59]: 6.61 µM; GI50 [27]: 3.1 µM; CC50 [27, 59]: 85.8 µM; GI50 [28]: 2.98 µM; CC50 [28, 59]: 50.9 µM; GI50 [29]: 2.24 µM; CC50 [29, 59]: 29.1 µM; GI50 [30]: 1.66 µM; CC50 [30, 59]: 6.05 µM; GI50 [31]: 2 µM; CC50 [31, 59]: 9.69 µM; GI50 [32]: 2.64 µM; CC50 [32, 59]: 23.4 µM; GI50 [33]: 2.26 µM; CC50 [33, 59]: > 100 µM; GI50 [34]: 2.98 µM; CC50 [34, 59]: 78.1 µM; GI50 [35]: 1.66 µM; CC50 [35, 59]: 6.96 µM; GI50 [36]: 4.01 µM; CC50 [36, 59]: 87.3 µM; GI50 [37]: 3.63 µM; CC50 [37, 59]: > 100 µM; GI50 [38]: 2.2 µM; CC50 [38, 59]: 38.8 µM; GI50 [39]: 2.11 µM; CC50 [39, 59]: 12.6 µM; GI50 [40]: 9.58 µM; CC50 [40, 59]: 46.7 µM; GI50 [41]: 8.44 µM; CC50 [41, 59]: > 100 µM; GI50 [42]: 1.93 µM; CC50 [42, 59]: 6.53 µM; GI50 [43]: 3.07 µM; CC50 [43, 59]: 51 µM; GI50 [44]: 2.46 µM; CC50 [44, 59]: 41.3 µM; GI50 [45]: 6.07 µM; CC50 [45, 59]: 46.9 µM; GI50 [46]: 1.57 µM; CC50 [46, 59]: 7.54 µM; GI50 [47]: 3.54 µM; CC50 [47, 59]: > 100 µM; GI50 [48]: 2.51 µM; CC50 [48, 59]: 39.8 µM; GI50 [49]: 7.36 µM; CC50 [49, 59]: 57.8 µM; GI50 [50]: 6.6 µM; CC50 [50, 59]: 46.1 µM; GI50 [51]: 1.66 µM; CC50 [51, 59]: 9.37 µM; GI50 [52]: 8.88 µM; CC50 [52, 59]: > 100 µM; GI50 [53]: 3.14 µM; CC50 [53, 59]: 50.3 µM; GI50 [54]: 2.15 µM; CC50 [54, 59]: 11.9 µM; GI50 [55]: 3.6 µM; CC50 [55, 59]: 34.8 µM; GI50 [56]: 4.99 µM; CC50 [56, 59]: 81 µM; GI50 [57]: 3.69 µM; CC50 [57, 59]: > 100 µM

Q: Which IC50 [58] does the source give for `CCOc1ncc(C)c2c1[C@H](c1ccc(C#N)cc1OC)C(C(N)=O)=C(C)N2` [FINERENONE] here?
A: 0.018 µM

— ChEMBL document CHEMBL2311467, “Microwave-assisted synthesis of pyrimido[4,5-b][1,6]naphthyridin-4(3H)-ones with potential antitumor activity” (Eur J Med Chem, 2013)
